In US20120310117A1, “METHOD FOR […] AND RELATED […]” (The McLean Hospital Corporation, priority 2009, published 2012):

Experiments:
[1] = test system: boys 9-12 years of age with ADHD combined subtype; assay: Infrared motion analysis of head marker movements during a 15-minute cognitive control task (Quotient Test), PRE and 120 minutes POST probe dose MPH; type: in vivo, human
Description: Data were analyzed from a study approved and monitored by the McLean Hospital Institutional Review Board […]. The ADHD sample consisted of 62 boys between 9-12 years of age who met Diagnostic and Statistical Manual of Mental Disorders, 4th edition (DSM-IV) (Diagnostic and statistical manual of mental disorders: DSM-IV.—4th ed., text revision. Washington, D.C: American Psychiatric Association; 2000) criteria for ADHD combined subtype. Subjects were recruited from the general population via newspaper advertisement for hyperactive boys who were currently or previously treated with MPH, as the protocol called from them to receive a moderately large probe dose of immediate release MPH. This was easier to justify in subjects known to tolerate MPH without untoward effects. Parental written consent and child verbal assent were obtained. […] Seventy-three boys went through the screening procedures, which included structured interviews for DSM-IV Axis I psychiatric diagnoses using K-SADS-E (Orvaschel H, Puig-Antich J. Schedule for Affective Disorder and Schizophrenia for School-Age Children, Epidemiologic Version, Fifth Revision. Fort Lauderdale, Fla.: Nova Southeastern University; 1994); and parent ratings on the Conners' Hyperactivity Index (Conners et al., J Abnorm Child Psychol. 26:257 (1998)) and Achenbach Child Behavior Checklist (CBCL) (Achenbach T. Integrative Guide to the 1991 CBCL/4-18, YSR, and TRF Profiles. Burlington, Vt.: University of Vermont, Department of Psychology; 1991). Children with ADHD could not have any current major mood disorder, psychosis, tic disorder, a major anxiety disorder, or mental retardation. Children with oppositional defiant disorder (ODD), or reported learning disorders, could participate. From this pool of subjects, 11 were excluded from further participation. […] One subject was disqualified for drug use, another was disqualified for current antidepressant treatment of night terrors, and one withdrew before the probe dose. […] In this sample, there were 19 boys with comorbid ODD, 2 with current dysthymia, 4 with learning disorders, and 3 with past major depression or past anxiety disorders. […] Sixty of these subjects were previously included in a study examining fluctuations in attentional state (Teicher et al., J Child Adolesc Psychopharmacol. 14:219 (2004)), and 48 were included in a study on pharmacokinetic-pharmacodynamic response to methylphenidate (Teicher et al., J Child Adolesc Psychopharmacol. 16:416 (2006)).
For comparison, we analyzed data from a representative non-clinical contrast group. This group consisted of 62 male students, randomly selected from a sample of 1168 subjects (6-14 years of age) tested at local public schools using teacher ratings and a computerized attention task with infrared motion analysis (Teicher et al., J Am Acad Child Adolesc Psychiatry 35:334 (1996); Quotient Test, BioBehavioral Diagnostic Company, Cambridge, Mass.). This large-scale database development study was approved by the McLean Hospital IRB and the school administrators. Parents provided written consent and children gave verbal assent to participate. Subjects selected from this sample were male, and matched 1:1 with the ADHD subjects by age to the nearest month (11.0±1.0 years). The selection criteria applied for this analysis was that they needed to have Conners' Teacher Ratings (Conners C K. American Journal of Psychiatry 126:884 (1969)) that were within ±1 SD of the mean of peers their own age and gender (i.e., T score<60), to help exclude subjects with potential ADHD.
Children with ADHD were tested prior to (PRE) and 120-minutes following (POST) a probe dose of 0.4 mg/kg MPH. Contrast subjects only received a single Quotient Test, which was specifically designed to provide objective measures of hyperactivity, inattention and impulsivity (Teicher et al., J Am Acad Child Adolesc Psychiatry 35:334 (1996)). […]

[2] = 2.5 mg of Focalin has the same therapeutic benefit as 5.0 mg of Ritalin; cited from earlier work
[3] = cited from earlier work
dopamine reuptake = settings: cited from earlier work

With `COC(=O)C(c1ccccc1)C1CCCCN1` (stereo not drawn) [MPH, methylphenidate] the “MLE in ADHD after MPH relative to contrast subjects” value ([1]; ADHD POST vs contrast) was 4.8 fold, the “ROC Area for MLE, ADHD POST vs contrast subjects” value ([1]; ADHD POST vs contrast) was 0.995 and the “ROC Area for β, ADHD POST vs contrast subjects” value ([1]; ADHD POST vs contrast) was 0.850. For the same compound, the “effect size d' for MLE, ADHD after MPH vs contrast subjects” value ([1]; ADHD POST vs contrast) was 3.1, the “percentage of ADHD subjects with evidence for a deterministic chaotic component to head movements after MPH” value ([1]; MLE vs surrogate data, fell from 84% PRE, 41/62 POST) was 66% and the “baseline and spike amplitudes and spike numbers relative to contrast group” value ([1]; Max-Pass, ADHD POST vs contrast controls) was “suppressed to at or below contrast group levels”. The “reduction of spike amplitude” value ([1]; Max-Pass, POST (120 min after 0.4 mg/kg MPH) vs PRE) was 52%, the “reduction of baseline amplitude” value ([1]; Max-Pass, POST (120 min after 0.4 mg/kg MPH) vs PRE, 62 ADHD boys) was 63% and the “reduction of number of spikes” value ([1]; Max-Pass, POST vs PRE) was 35%. For the same compound, the “effect size of MPH on ApEn, β and MLE” value ([1]; POST vs PRE) was 1.0-1.2, the “within subject reduction in composite inhibitory measures” value ([1]; baseline and spike amplitude, POST vs PRE) was 58.3%±39.9% and the “ADHD subjects POST with evidence for a deterministic component to head positions” value ([1]; correlation dimension method with surrogate data, 56/62 PRE) was 62/62. The “inhibitory measures POST MPH vs controls” value ([1]; first 5 minutes of the test) was “did not differ from controls”, the “non-linear measures POST MPH vs controls” value ([1]; first 5 minutes of the test) was “remained distinctly different than controls” and the “Spike area (SpArea) PST AVG” value ([1]; post-medication ADHD subjects, N 62, PRE AVG 100897.28, CTRL AVG 42396.0034) was 36631.5066. The “baseline and spike amplitudes relative to contrast group” value ([1]; spike detection by cluster analysis, ADHD POST vs contrast controls) was “at or below contrast group levels” and the “reduction in composite measures of positional stability” value ([1]; β, MLE, POST vs PRE) was 16.6%±19.2%.
In the case of `COC(=O)[C@H](c1ccccc1)[C@H]1CCCCN1` [Focalin], the “potency relative to methylphenidate” value [2] is listed as “twice as potent” and the “onset of action, in words” value ([3]; after administration) is listed as “immediately”.
For `CNCC[C@@H](Oc1ccccc1C)c1ccccc1` [Atomoxetine], the “coverage of symptoms associated with ADHD” value ([3]; clinical trials in adults and children) is listed as 24 h.
For `CC(NC(C)(C)C)C(=O)c1cccc(Cl)c1` (stereo not drawn) [Bupropion], the “potency as inhibitor of dopamine reuptake relative to norepinephrine reuptake” value (dopamine reuptake) is listed as “about twice as potent”.
